Holding throughout (assay): NCI-60 cell line screen, 48 h
In assay [1] the test system is SK-MEL-28 melanoma.
Assay [2] relates to KM12 colon.
For assay [3], the system named is SK-MEL-2 melanoma.
Assay [4] has as its system EKVX NSCLC.
In assay [5] the test system is UACC-62 melanoma.
Assay [6] concerns MALME-3M melanoma.
Assay [7] has as its system OVCAR-5 ovarian.
In assay [8] the test system is RPMI-8226 leukemia.
For assay [9], the system named is MDA-MB-231 breast.

“And” between values parts separate entries of the source, which are not always exact repeats. Identical values can stand only once.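 Interpolation was linear, between the two tested concentrations surrounding the appropriate level; five concentrations were tested over 48 hours in 96-well plates. Here, GI50 denotes the concentration required for 50% inhibition of growth. TGI denotes the concentration required for complete inhibition of growth.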

On to `O=C(O)CCNCCCNCCC(=O)O`, for which the TGI in [1], in [2], in assay [3], in assay [4], in assay [5] and in assay [6] was > 100 µM in each case. In addition, the TGI in assay [7] and in [8] was > 100 µM in each case.

As for `Cc1c(C(=O)C/C(=N/NC(=O)c2ccccc2O)C(=O)Nc2ccccc2C(C)C)[n+](=O)c2ccccc2n1[O-]`, the TGI is > 100 µM in assay [1]; > 100 µM in assay [2]; 8.81 µM in assay [3]; > 100 µM in assay [4]; 77.7 µM in assay [5]; > 100 µM in assay [6]. Also, in [7], the TGI was > 100 µM.

As to `COC(=O)/C(C#N)=C1\NC(=O)c2ccccc21`, the TGI in assay [1], in assay [2], in assay [4], in assay [5], in [6] and in assay [7] was > 100 µM each time. Besides, the TGI in [8] was > 100 µM.

Take `CNC(=S)OCCC(C)CCCC(C)C` (configuration not stated): the TGI was 41 µM in assay [1]; 27.8 µM in [2]; 26.7 µM in assay [3]; 31.7 µM in [4]; 29.1 µM in [5]; 36.8 µM in assay [6]. Further, the TGI in assay [7] came out at 23.9 µM; in [8], 26.8 µM.

For the compound `CCCC1C(=O)CCc2c(OC)ccc(OC)c21` (configuration not stated), the TGI in assay [2], in assay [3], in assay [4], in [5], in assay [6] and in assay [7] was > 100 µM each time. Moreover, the TGI in assay [8] was > 100 µM.

With `COC(=O)C1(C(C)C)CCc2c(OC)ccc(OC)c2C1=O` (configuration not stated), the TGI in assay [1], in assay [2], in [3], in assay [4], in [5] and in assay [6] was > 100 µM throughout. Also, the TGI in assay [7] and in assay [8] was > 100 µM throughout.

`Cc1cc(N(CCC#N)CCC#N)ccc1N=Nc1ccc(S(N)(=O)=O)cc1`: the TGI in assay [1], in assay [2], in assay [3], in [4], in assay [5] and in assay [6] was > 100 µM each time. Moreover, the TGI in [7] and in assay [8] was > 100 µM each time.

With `CCOC(=O)C(C)(C)Oc1ccc2c(-c3ccccc3)cc(=O)oc2c1`, the TGI in assay [1] is > 100 µM; in assay [3], 48.7 µM; in assay [4], > 100 µM; in [5], 38.6 µM; in assay [6], 73.6 µM; in assay [8], 49.9 µM.

Take `CCCCCCCCCCCC(=O)OCCOCCOCCOCCOCCOCc1ccccc1`: the TGI in assay [1], in assay [2], in assay [3], in assay [4], in assay [5] and in assay [6] was > 100 µM in each case. The TGI in assay [7] and in assay [8] was > 100 µM in each case.

On to `Clc1ccccc1C(SCc1ccccc1)SCc1ccccc1`, for which the TGI in assay [1], in [2], in assay [3], in assay [4], in assay [5] and in assay [6] was > 100 µM in each case. For the same compound, the TGI in assay [7] and in [8] was > 100 µM in each case.

As for `O=C(CCc1nc(=S)[nH][nH]1)Nc1ccc(Cl)c(Cl)c1`, the TGI in assay [1] was > 100 µM; in [2] it was > 100 µM; in assay [3], 31.2 µM; in assay [4] it was > 100 µM; in assay [5] it was 22 µM; in [6], > 100 µM. The TGI in [7] and in assay [8] was > 100 µM throughout.

As to `CN(C)C(=S)N=C(Nc1ccccc1)Nc1ccccc1`, the TGI in assay [1], in [2], in assay [3], in assay [4], in assay [5] and in assay [6] was > 100 µM each time. Also, the TGI in [7] and in [8] was > 100 µM in each case.

In the case of `Cc1cc(NS(=O)(=O)c2ccc(Nc3c4ccccc4nc4c(C(=O)N5CCN(CCOS(C)(=O)=O)CC5)cccc34)cc2)no1`, the TGI in assay [1], in [2], in assay [3], in [5], in [6] and in assay [7] was > 100 µM throughout. For the same compound, the TGI in assay [8] was > 100 µM.

`C[C@@H](Oc1cc(-n2cnc3ccc(CN4CCN(C)CC4)cc32)sc1C(N)=O)c1ccccc1C(F)(F)F`: the TGI in assay [9] is 2.65 µM and > 2.79 µM; in [2] it was 12.7 µM and > 10 µM; in [3], > 10 µM; in assay [4] it was 21.6 µM and > 10 µM; in assay [5] it was 16.7 µM and > 10 µM; in assay [6], 7.62 µM and > 6.99 µM. The TGI was 16.6 µM and > 10 µM in assay [7]; 13.6 µM and > 10 µM in assay [8]. Besides, the GI50 in assay [2] was < 0.012 µM and 0.00556 µM; in assay [5], 0.0326 µM and 0.0382 µM; in [6], 2.81 µM and 2.77 µM; in assay [7], < 0.0175 µM and 0.0264 µM; in assay [8] it was 0.0546 µM and 0.0384 µM.

As to `COc1cc2cc(OC)c3cc4c(cc3c2c(OC)c1OC)OCO4`, the TGI in assay [1] was > 57.6 µM; in [2], > 51.2 µM; in [3], > 100 µM; in assay [4], > 92 µM; in assay [5] it was > 64.4 µM; in assay [6], > 100 µM. Besides, the values for the TGI in assay [7] and in assay [8] were 90.9 µM and 52.9 µM, respectively.

In the case of `Cc1nc2c(ccc3ncccc32)[nH]1`, the TGI in assay [1], in assay [2], in assay [3], in assay [4], in assay [5] and in [6] was > 100 µM throughout. For the same compound, the TGI in [7] and in [8] was > 100 µM throughout.

For the origin of these results see PubChem BioAssay (NCI).
